PubChem BioAssay AID2060626 (Molecular Pharmacology Branch, DTP, NCI, 2025)

Test system: 168753-222-R-J1-PDC complex spheroid viability
Assay: Anticancer human tumor 168753-222-R-J1-PDC patient-derived bladder carcinoma cell line growth inhibition [CLK]
Conditions: for IC50: curve of first compound; for viability, T/C: stronger effect = lower value
Procedure, shortened: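 Multi-cell-type spheroids combined patient-derived tumor cells with HUVEC endothelial cells and human mesenchymal stem cells. Paired agents were dosed in half-log steps down from about clinical Cmax, or from 10 microM where Cmax was unknown.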
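Further: viability measured after seven days of drug exposure.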
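Wherever viability, T/C is given: luminescence signal used as surrogate for viable cell amount; 100% = DMSO vehicle control wells.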

With `O=C(c1cc(Cc2n[nH]c(=O)c3ccccc23)ccc1F)N1CCN(C(=O)C2CC2)CC1` + CNC(=O)c1ccc(Nc2nc(OC3CCCC3)c3c(-c4ccc5nc(C)oc5c4)c[nH]c3n2)c(OC)c1 the IC50 (second compound 0.0316 µM) was greater than 10 µM, the IC50 (second compound 0.1 µM) was greater than 10 µM and the IC50 (second compound 0.316 µM) was greater than 10 µM. It also gave an IC50 (second compound 1 µM) of less than 0.0316 µM, an IC50 (second compound 3.16 µM) of less than 0.0316 µM and an IC50 (second compound 10 µM) of less than 0.0316 µM. It also gave a viability, T/C (second compound 0.0316 µM, first compound 0.0316 µM) of 105%, a viability, T/C (second compound 0.0316 µM, first compound 0.1 µM) of 113% and a viability, T/C (second compound 0.0316 µM, first compound 0.316 µM) of 103%. It also gave a viability, T/C (second compound 0.0316 µM, first compound 1 µM) of 118%, a viability, T/C (second compound 0.0316 µM, first compound 3.16 µM) of 114% and a viability, T/C (second compound 0.0316 µM, first compound 10 µM) of 95.5%. It also gave a viability, T/C (second compound 0.1 µM, first compound 0.0316 µM) of 92.3%, a viability, T/C (second compound 0.1 µM, first compound 0.1 µM) of 86.1% and a viability, T/C (second compound 0.1 µM, first compound 0.316 µM) of 92.8%. It also gave a viability, T/C (second compound 0.1 µM, first compound 1 µM) of 95%, a viability, T/C (second compound 0.1 µM, first compound 3.16 µM) of 99.2% and a viability, T/C (second compound 0.1 µM, first compound 10 µM) of 93.7%. It also gave a viability, T/C (second compound 0.316 µM, first compound 0.0316 µM) of 76.8%, a viability, T/C (second compound 0.316 µM, first compound 0.1 µM) of 74.2% and a viability, T/C (second compound 0.316 µM, first compound 0.316 µM) of 68.2%. The viability, T/C (second compound 0.316 µM, first compound 1 µM) was 63.6%, the viability, T/C (second compound 0.316 µM, first compound 3.16 µM) was 84.8% and the viability, T/C (second compound 0.316 µM, first compound 10 µM) was 70.4%. The viability, T/C (second compound 1 µM, first compound 0.0316 µM) was 39.7%, the viability, T/C (second compound 1 µM, first compound 0.1 µM) was 41% and the viability, T/C (second compound 1 µM, first compound 0.316 µM) was 37.3%. It also gave a viability, T/C (second compound 1 µM, first compound 1 µM) of 39.7%, a viability, T/C (second compound 1 µM, first compound 3.16 µM) of 44.4% and a viability, T/C (second compound 1 µM, first compound 10 µM) of 38.4%. It also gave a viability, T/C (second compound 3.16 µM, first compound 0.0316 µM) of 24.1%, a viability, T/C (second compound 3.16 µM, first compound 0.1 µM) of 26.2% and a viability, T/C (second compound 3.16 µM, first compound 0.316 µM) of 22.7%. It also gave a viability, T/C (second compound 3.16 µM, first compound 1 µM) of 17.8%, a viability, T/C (second compound 3.16 µM, first compound 3.16 µM) of 22.3% and a viability, T/C (second compound 3.16 µM, first compound 10 µM) of 25.5%. For the same compound, the viability, T/C (second compound 10 µM, first compound 0.0316 µM) was 17.8%, the viability, T/C (second compound 10 µM, first compound 0.1 µM) was 18.5% and the viability, T/C (second compound 10 µM, first compound 0.316 µM) was 18.7%. The viability, T/C (second compound 10 µM, first compound 1 µM) was 18.1%, the viability, T/C (second compound 10 µM, first compound 3.16 µM) was 18.1% and the viability, T/C (second compound 10 µM, first compound 10 µM) was 21.3%.
